Consider 14 compounds from paper PMC10674617, “Design, Synthesis, Evaluation and Molecular Dynamics Simulation of Dengue Virus NS5-RdRp Inhibitors” (Pharmaceuticals, 2023).

Values joined by “and” are separate entries in the source; they are usually repeats but may differ in a detail not shown here. Equal values may be shown once. Some results are limits rather than exact numbers.

Tested on in the first data set: not listed separately
As to the kind of experiment: Cytotoxicity assay. The class given is cell-based. The conditions noted are these: dog.
For orientation: CC50 means the concentration giving 50% cytotoxicity. Higher therefore signals better tolerance by the cells. In turn, `COc1cc(C)c(S(=O)(=O)NC(=O)C2CC(=O)N(c3ccc(Cl)c(Cl)c3)C2)cc1-c1ccc(C#CCO)s1` (stereo not drawn) [SW-e] gave a CC50 at 3 days of 69.9 µM.
The compound `COc1cc(C)c(S(=O)(=O)NC(=O)c2ccc3c(c2)C(=O)N(c2cccc(C)c2)C3=O)cc1-c1ccc(C#CCO)s1` [SW-f] registered a CC50 at 3 days of more than 200 µM.
`Nc1ncnc2c([C@@H]3N[C@H](CO)[C@@H](O)[C@H]3O)c[nH]c12` [BCX4430, reference compound] had a cytotoxic concentration (CC50) at 3 days of 100 µM.
`COc1cc(C)c(S(=O)(=O)NC(=O)c2ccc(-n3c(C)ccc3C)cc2)cc1-c1ccc(C#CCO)s1` [SW-c]: the CC50 at 3 days was more than 200 µM.
Still for that read-out and setting: next, `COc1cc(C)c(S(=O)(=O)NC(=O)C(C)Oc2ccc3c4c(c(=O)oc3c2)CCCC4)cc1-c1ccc(C#CCO)s1` (stereo not drawn) [SW-b]: 24.7 µM.
`COc1cc(C)c(S(=O)(=O)NC(=O)c2ccc(C)c(Nc3nc(C)nc4c3CCC4)c2)cc1-c1ccc(C#CCO)s1` [SW-d] yielded a CC50 at 3 days of 134 µM.

For the next data set, the system named is MDCK cells. As to the kind of experiment: Cytotoxicity assay. The conditions noted are these: cytotoxicity, MDCK cells. It counts as cell-based.
`C#C[C@@]1(O)[C@H](O)[C@@H](CO)O[C@H]1n1ccc2c(N)ncnc21` [NITD008, reference compound] yielded a CC50 of 20 µM.

For a further data set, the system named is DENV RdRp.
Assay: not given
Set-up: method as in PMID 26984786, PMID 27500641. Particulars: against all clinically relevant dengue virus serotypes; cited from earlier work.
What is called IC50 is the concentration that inhibits the measured activity by half. On to `COc1cccc(S(=O)(=O)NC(=O)c2cc(-c3ccc(C#CCO)s3)c(OC)cc2OC)c1` [Compound 29], for which the IC50 was 0.048 to 0.172 µM.
Take `COc1cc(C)c(C(=O)NS(=O)(=O)c2cccc3cccnc23)cc1-c1ccc(C#CCO)s1` [Compound 27, reference compound]: the IC50 was 0.013 to 0.074 µM.

For a further data set, the system named is DENV2 NGC strain. Nature of the data set: Cytopathic effect (CPE) inhibition assay. It counts as cell-based, Dengue virus (DENV2). The conditions noted are these: CPE inhibition, BHK-21 cells, DENV2 NGC strain; mean ± SD of two individual experiments; read-out: DENV-NGC-IC50. How it is done:
The antiviral activities of the nine synthesized compounds against DENV were assessed using the DENV2 NGC strain and BHK-21 cells via CPE inhibition assays. BCX4430, NITD008, and 27 were used as positive controls (Figure S2). […] The activity of compound SW-d was higher than that of BCX4430 and lower than that of NITD008; however, its SI was higher than those of BCX4430 and NITD008.
In cell-based antiviral assays, the DENV2 NGC strain (Sino Biological Inc., Beijing, China) and BHK-21 cells (Baby hamster kidney cell line; ATCC CCL10) were used. The viral stock was prepared by inoculating C6/36 cells (Aedes albopictus clone C6/36; ATCC CRL166) as described previously. […] The supernatant was cleared by centrifugation at 2000 g for 5 min to remove cell debris and adjusted to 20% FBS. Aliquots of the virus were stored at […]. The 50% tissue culture infective dose (TCID50) was determined using the Promega Viral ToxGlo assay (Fisher Scientific, Ottawa, ON, Canada) in BHK-21 cells, according to the manufacturer’s instructions. Cell-based assays for the evaluation of antiviral activity against DENV were performed as described previously with modifications, using the Viral ToxGlo assay (Fisher Scientific, Ottawa, ON, Canada) according to the manufacturer’s instructions. Briefly, BHK-21 cells were plated in 96-well plates at 2500 cells/well in Dulbecco’s modified Eagle’s medium (DMEM) containing 10% FBS and 1% penicillin-streptomycin. Cells were incubated at 37 °C overnight and infected with 100 TCID50 of DENV for 90 min. The medium was replaced with DMEM containing 2.5% FBS and varying concentrations of the test compounds. Cell cultures were maintained at 37 °C in a 5% CO2 incubator for 3 days. The Viral Tox reagent was freshly prepared, and 100 μL of the reagent was added to each well. The plates were incubated for at least 10 min and then quantified using a 1450 MicroBeta TriLux microplate scintillation and luminescence counter (PerkinElmer, Waltham, MA, USA). For the off-target cytotoxicity assay, the test compounds were processed as described above, except without DENV infection of the cells. The luminescence readings were plotted against the log transformation of the concentration of the compound. Data were analyzed by nonlinear regression using GraphPad Prism 5.0 software (GraphPad Software, San Diego, CA, USA).
(Damage to the host cells serves as the signal in cytopathic effect assays.)
As for `C#C[C@@]1(O)[C@H](O)[C@@H](CO)O[C@H]1n1ccc2c(N)ncnc21` [NITD008, reference compound], the IC50 is 41.6 µM and 15.5 µM.

Still in this data set, the particulars now being: Dengue virus, DENV2, BHK-21, CPE inhibition, BHK-21 cells, DENV2 NGC strain; mean ± SD of two individual experiments; read-out: DENV-NGC-IC50.
Consider `COc1cc(C)c(S(=O)(=O)NC(=O)C2CC(=O)N(c3ccc(Cl)c(Cl)c3)C2)cc1-c1ccc(C#CCO)s1` (stereo not drawn) [SW-e], for which the IC50 is more than 200 µM.
Take `COc1cc(C)c(S(=O)(=O)NC(=O)c2ccc(C)s2)cc1-c1ccc(C#CCO)s1` [SW-g]: the IC50 was more than 200 µM.
Same read-out and setting: in the case of `COc1cc(C)c(S(=O)(=O)NC(=O)c2ccncn2)cc1-c1ccc(C#CCO)s1` [SW-h] it was more than 200 µM; in that of `COc1cccc(C(=O)NS(=O)(=O)c2cc(-c3ccc(C#CCO)s3)c(OC)cc2C)c1` [SW-a], 57.6 ± 2.37 µM; in that of `COc1cc(C)c(S(=O)(=O)NC(=O)c2ccc3c(c2)C(=O)N(c2cccc(C)c2)C3=O)cc1-c1ccc(C#CCO)s1` [SW-f], 53.8 ± 4.53 µM.
`COc1cc(C)c(C(=O)NS(=O)(=O)c2cccc3cccnc23)cc1-c1ccc(C#CCO)s1` [Compound 27, reference compound]: the IC50 is 19.7 ± 1.12 µM.
For `COc1cc(C)c(S(=O)(=O)NC(=O)Cn2nc(C)cc2C)cc1-c1ccc(C#CCO)s1` [SW-i], the 50% inhibitory concentration (IC50) was more than 200 µM.
For `COc1cc(C)c(S(=O)(=O)NC(=O)c2ccc(-n3c(C)ccc3C)cc2)cc1-c1ccc(C#CCO)s1` [SW-c], the IC50 is 41.5 ± 1.37 µM.
Consider `COc1cc(C)c(S(=O)(=O)NC(=O)C(C)Oc2ccc3c4c(c(=O)oc3c2)CCCC4)cc1-c1ccc(C#CCO)s1` (stereo not drawn) [SW-b], for which the IC50 came to 3.58 ± 0.29 µM.
With `COc1cc(C)c(S(=O)(=O)NC(=O)c2ccc(C)c(Nc3nc(C)nc4c3CCC4)c2)cc1-c1ccc(C#CCO)s1` [SW-d], the IC50 amounted to 23.9 ± 1 µM.

Still in this data set, the particulars now being: ratio of CC50 to IC50.
Consider `COc1cc(C)c(S(=O)(=O)NC(=O)c2ccc3c(c2)C(=O)N(c2cccc(C)c2)C3=O)cc1-c1ccc(C#CCO)s1` [SW-f], for which the “SI (Selectivity Index)” value is reported as more than 3.72.
As to `Nc1ncnc2c([C@@H]3N[C@H](CO)[C@@H](O)[C@H]3O)c[nH]c12` [BCX4430, reference compound], the “SI (Selectivity Index)” value came out at 2.40.
As for `COc1cc(C)c(S(=O)(=O)NC(=O)C(C)Oc2ccc3c4c(c(=O)oc3c2)CCCC4)cc1-c1ccc(C#CCO)s1` (stereo not drawn) [SW-b], the “SI (Selectivity Index)” value is recorded as 6.89.
The same measure, in the same setting: next, `COc1cc(C)c(S(=O)(=O)NC(=O)c2ccc(C)c(Nc3nc(C)nc4c3CCC4)c2)cc1-c1ccc(C#CCO)s1` [SW-d]: 5.58.

Another data set concerns the target T1, DENV2 RdRp (Dengue virus type 2, UniProt P14340).
T1 construct: 100 nM of DENV2 full-length NS5 enzyme
Nature of the data set: DENV biochemical enzyme assay. The conditions noted are these: mean ± SD of two individual experiments. How it is done: The inhibitory activities of compounds SW-b and SW-d against DENV-2 RdRp were assessed using in vitro enzyme inhibition assays. Compounds 3′-dATP, BCX4430, and NITD008 were used as controls. […] This confirmed the reliability of the DENV2 RdRp inhibitory activity assay.
Additionally, it contained 20 μM ATP, 20 μM GTP, 20 μM UTP, 5 μM ATTO-CTP, and 100 nM of DENV2 full-length NS5 enzyme. These were all suspended in a solution consisting of 50 mM Tris/HCl at pH 7.5, 10 mM KCl, 1 mM MgCl2, 0.3 mM MnCl2, 0.001% Triton-X-100, and 10 μM cysteine. Five compounds, with concentrations ranging from 0 to 20 or 100 μM, were serially diluted 2-fold into 384-well white opaque plates (Corning Costar, New York, NY, USA), resulting in a final volume of 5 μL. Subsequently, 5 μL of the enzyme in a 1× assay buffer was added to their respective wells. The plate was incubated at room temperature for 15 min, after which 5 μL of a mixture containing RNA and NTPs was introduced to initiate the reactions. After a reaction time of 120 min, the process was terminated by adding 10 μL of a 2.5× STOP buffer, comprising 200 mM NaCl, 25 mM MgCl2, and 1.5 M DEA adjusted to pH 10 using […]. Additionally, 25 nM of calf intestinal alkaline phosphatase (NEB) was introduced. The mixture was allowed to incubate at room temperature for an additional 60 min. To quantify the results, a Tecan Saffire II microplate reader was employed, with excitation max and emission max wavelengths set at 422 nm and 566 nm, respectively. All data points were analyzed in duplicate wells. Finally, the IC50 values were determined using a nonlinear regression curve fit for a sigmoidal dose–response (variable slope) in GraphPad Prism version 3.02 (GraphPad Prism, Inc., San Diego, CA).
In the case of `Nc1ncnc2c1ncn2[C@@H]1O[C@H](COP(=O)(O)OP(=O)(O)OP(=O)(O)O)C[C@H]1O` [3′-dATP, reference compound], inhibition was half-maximal at 30.1 ± 8.26 µM (IC50).
Still for that read-out and setting: in the case of `COc1cc(C)c(S(=O)(=O)NC(=O)C(C)Oc2ccc3c4c(c(=O)oc3c2)CCCC4)cc1-c1ccc(C#CCO)s1` (stereo not drawn) [SW-b] it was 11.5 ± 1.3 µM; in that of `COc1cc(C)c(S(=O)(=O)NC(=O)c2ccc(C)c(Nc3nc(C)nc4c3CCC4)c2)cc1-c1ccc(C#CCO)s1` [SW-d], 13.5 ± 0.32 µM.
